Experimental data taken from patent publication US20200237759A1, “DOSAGE REGIME AND METHOD FOR TREATING PULMONARY ARTERIAL HYPERTENSION” (Altavant Sciences GmbH, priority 2019, published 2020).

Assay: Part 2 MAD plasma pharmacokinetics, BID oral KAR5585 for 14 days
Settings: for tmax: Median
[1] = 100 mg (Cohort 2) to 400 mg (Cohort 4) BID fed, 4-fold increase in dose
[2] = 100 mg BID fasted, Cohort 1, Day 1 AM, Mean
[3] = 100 mg BID fasted, Cohort 1, Day 14, Mean
[4] = 100 mg BID fed, Cohort 2, Day 1 AM, Mean
[5] = 100 mg BID fed, Cohort 2, Day 1 PM, Geo. Mean
[6] = 100 mg BID fed, Cohort 2, Day 1 PM, Mean
[7] = 100 mg BID fed, Cohort 2, Day 7 AM, Geo. Mean
[8] = 100 mg BID fed, Cohort 2, Day 7 AM, Mean
[9] = 100 mg BID fed, Cohort 2, Day 7 PM, Geo. Mean
[10] = 100 mg BID fed, Cohort 2, Day 14 AM, Geo. Mean
[11] = 100 mg BID fed, Cohort 2, Day 14 AM, Mean
[12] = 100 mg KAR5585 BID, fasted (Part 2, Cohort 1)
[13] = 200 mg BID fed, Cohort 3, Day 1 AM, Geo. Mean
[14] = 200 mg BID fed, Cohort 3, Day 1 PM, Geo. Mean
[15] = 200 mg BID fed, Cohort 3, Day 7 AM, Geo. Mean
[16] = 200 mg BID fed, Cohort 3, Day 7 AM, Mean
[17] = 200 mg BID fed, Cohort 3, Day 7 PM, Geo. Mean
[18] = 200 mg BID fed, Cohort 3, Day 7 PM, Mean
[19] = 200 mg BID fed, Cohort 3, Day 14 AM, Geo. Mean
[20] = 200 mg BID fed, Cohort 3, Day 14 AM, Mean
[21] = 400 mg BID fed, Cohort 4, Day 1 AM, Geo. Mean
[22] = 400 mg BID fed, Cohort 4, Day 1 PM, Geo. Mean
[23] = 400 mg BID fed, Cohort 4, Day 7 AM, Geo. Mean
[24] = 400 mg BID fed, Cohort 4, Day 7 PM, Geo. Mean
[25] = 400 mg BID fed, Cohort 4, Day 7 PM, Mean
[26] = 400 mg BID fed, Cohort 4, Day 14 AM, Geo. Mean
[27] = 400 mg BID fed, Cohort 4, Day 14 AM, Mean

Description: Food effect was to be evaluated in Part 1, Period 2.
Part 2 (MAD): BID doses (separated by approximately 12 hours on Days 1 to 13) and a single AM dose on Day 14. One or more of the MAD Cohort could have been dosed once daily (QD).
Pharmacokinetic data were to be summarized descriptively.

Compound: Nc1nc(O[C@H](c2ccc(Cl)cc2-c2ccccc2)C(F)(F)F)cc(N2CCC3(CC2)CN[C@H](C(=O)O)C3)n1 [KAR5417, (S)-8-(2-amino-6-((R)-1-(5-chloro-[1,1′-biphenyl]-2-yl)-2,2,2-trifluoroeth-oxy)pyrimidin-4-yl)-2,8-diazaspiro[4.5]decane-3-carboxylic acid]
- increase in mean AUC0-12, Day 1 [1]: 7.0 fold
- increase in mean AUC0-12, Day 14 [1]: 4.6 fold
- increase in mean AUC0-24, Day 1 [1]: 6.45 fold
- increase in mean AUC0-24, Day 14 [1]: 4.45 fold
- increase in mean Cmax, Day 1 [1]: 6.9 fold
- increase in mean Cmax, Day 14 [1]: ~4.5 fold
- AUC0-12 [2]: 741 ng·h/mL
- Cmax [2]: 121 ng/mL
- t1/2 [2]: 3.43 h
- tmax (100 mg BID fasted, Cohort 1, Day 1 AM): 3.0 h
- AUC0-12 [3]: 1280 ng·h/mL
- AUC0-24 [3]: 1650 ng·h/mL
- Cmax [3]: 194 ng/mL
- t1/2 [3]: 18.8 h
- tmax (100 mg BID fasted, Cohort 1, Day 14): 3.0 h
- t1/2 (100 mg BID fed, Cohort 2, Day 1 AM, Geo. Mean): 4.16 h
- AUC0-12 [4]: 470 ng·h/mL
- Cmax [4]: 85.9 ng/mL
- tmax (100 mg BID fed, Cohort 2, Day 1 AM): 2.0 h
- AUC0-12 [5]: 714 ng·h/mL
- AUC0-24 [5]: 1160 ng·h/mL
- AUC0-∞ [5]: 1090 ng·h/mL
- Cmax [5]: 119 ng/mL
- AUC0-12 [6]: 748 ng·h/mL
- AUC0-24 [6]: 1220 ng·h/mL
- tmax (100 mg BID fed, Cohort 2, Day 1 PM): 3.0 h
- AUC0-12 [7]: 1050 ng·h/mL
- AUC0-∞ [7]: 1380 ng·h/mL
- t1/2 [7]: 5.24 h
- Cmax [8]: 168 ng/mL
- t1/2 [8]: 5.31 h
- tmax (100 mg BID fed, Cohort 2, Day 7 AM): 3.0 h
- AUC0-12 [9]: 875 ng·h/mL
- AUC0-24 [9]: 1930 ng·h/mL
- AUC0-∞ [9]: 1700 ng·h/mL
- Cmax [9]: 106 ng/mL
- t1/2 [9]: 7.91 h
- Cmax (100 mg BID fed, Cohort 2, Day 7 PM, Mean): 112 ng/mL
- tmax (100 mg BID fed, Cohort 2, Day 7 PM): 6.0 h
- RCmax (100 mg BID fed, Cohort 2, Day 14 AM, Day 14/Day 1 accumulation ratio, Geo. Mean): 1.90
- AUC0-12 [10]: 900 ng·h/mL
- AUC0-24 [10]: 1220 ng·h/mL
- AUC0-∞ [10]: 1780 ng·h/mL
- Cmax [10]: 155 ng/mL
- t1/2 [10]: 19.0 h
- AUC0-12 [11]: 943 ng·h/mL
- AUC0-24 [11]: 1270 ng·h/mL
- Cmax [11]: 168 ng/mL
- t1/2 [11]: 19.6 h
- tmax (100 mg BID fed, Cohort 2, Day 14 AM): 2.0 h
- time to peak plasma concentrations (range), Day 1 (100 mg KAR5585 BID, Part 2 Cohort 1 (fasted state)): 2.0 to 6.0 h
- median tmax Day 14 (100 mg KAR5585 BID, fasted): 3.0 hour postdose
- mean peak concentration relative to corresponding peak mean concentration of KAR5585, Day 1 [12]: approximately 7.25 fold
- mean peak concentration relative to corresponding peak mean concentration of KAR5585, Day 14 [12]: ~9.1 fold
- half-life, Day 14 (100 mg KAR5585 BID, fasted state): 18.8 h
- median tmax Day 14 (100 mg KAR5585 BID, fed): 3.0 hour postdose
- AUC0-12 [13]: 1620 ng·h/mL
- AUC0-∞ [13]: 1980 ng·h/mL
- t1/2 [13]: 4.41 h
- AUC0-12 (200 mg BID fed, Cohort 3, Day 1 AM, Mean): 1700 ng·h/mL
- tmax (200 mg BID fed, Cohort 3, Day 1 AM): 3.0 h
- AUC0-24 [14]: 3540 ng·h/mL
- AUC0-∞ [14]: 2640 ng·h/mL
- Cmax [14]: 307 ng/mL
- t1/2 [14]: 5.95 h
- AUC0-12 (200 mg BID fed, Cohort 3, Day 1 PM, Mean): 2000 ng·h/mL
- tmax (200 mg BID fed, Cohort 3, Day 1 PM): 4.0 h
- RCmax (200 mg BID fed, Cohort 3, Day 7 AM, Day 7/Day 1 accumulation ratio, Mean): 1.00
- AUC0-∞ [15]: 2610 ng·h/mL
- Cmax [15]: 332 ng/mL
- t1/2 [15]: 4.57 h
- AUC0-∞ [16]: 2800 ng·h/mL
- Cmax [16]: 359 ng/mL
- t1/2 [16]: 4.61 h
- tmax (200 mg BID fed, Cohort 3, Day 7 AM): 4.0 h
- AUC0-12 [17]: 1490 ng·h/mL
- AUC0-24 [17]: 3620 ng·h/mL
- AUC0-∞ [17]: 2270 ng·h/mL
- Cmax [17]: 212 ng/mL
- t1/2 [17]: 6.48 h
- AUC0-12 [18]: 1540 ng·h/mL
- AUC0-24 [18]: 3810 ng·h/mL
- AUC0-∞ [18]: 2280 ng·h/mL
- Cmax [18]: 222 ng/mL
- tmax (200 mg BID fed, Cohort 3, Day 7 PM): 8.0 h
- AUC0-12 [19]: 1670 ng·h/mL
- AUC0-24 [19]: 2200 ng·h/mL
- t1/2 [19]: 24.1 h
- AUC0-12 [20]: 1820 ng·h/mL
- AUC0-24 [20]: 2380 ng·h/mL
- Cmax [20]: 319 ng/mL
- t1/2 [20]: 25.0 h
- tmax (200 mg BID fed, Cohort 3, Day 14 AM): 3.0 h
- AUC0-∞ [21]: 3400 ng·h/mL
- t1/2 [21]: 3.71 h
- AUC0-∞ (400 mg BID fed, Cohort 4, Day 1 AM, Mean): 3780 ng·h/mL
- tmax (400 mg BID fed, Cohort 4, Day 1 AM): 3.0 h
- AUC0-∞ [22]: 6860 ng·h/mL
- t1/2 [22]: 5.3 h
- tmax (400 mg BID fed, Cohort 4, Day 1 PM): 4.0 h
- RCmax (400 mg BID fed, Cohort 4, Day 7 AM, Day 7/Day 1 accumulation ratio, Mean): 2.00
- AUC0-∞ [23]: 7480 ng·h/mL
- Cmax [23]: 960 ng/mL
- t1/2 [23]: 3.89 h
- t1/2 (400 mg BID fed, Cohort 4, Day 7 AM, Mean): 3.94 h
- tmax (400 mg BID fed, Cohort 4, Day 7 AM): 4.0 h
- RAUC0-12 (400 mg BID fed, Cohort 4, Day 7 PM, Day 7/Day 1 accumulation ratio, Geo. Mean): 1.50
- AUC0-12 [24]: 4360 ng·h/mL
- AUC0-∞ [24]: 6450 ng·h/mL
- Cmax [24]: 574 ng/mL
- t1/2 [24]: 5.08 h
- AUC0-12 [25]: 4610 ng·h/mL
- AUC0-∞ [25]: 6520 ng·h/mL
- Cmax [25]: 608 ng/mL
- t1/2 [25]: 5.10 h
- tmax (400 mg BID fed, Cohort 4, Day 7 PM): 6.0 h
- AUC0-12 [26]: 4160 ng·h/mL
- AUC0-24 [26]: 5410 ng·h/mL
- AUC0-∞ [26]: 8120 ng·h/mL
- Cmax [26]: 717 ng/mL
- t1/2 [26]: 30.4 h
- AUC0-12 [27]: 4350 ng·h/mL
- Cmax [27]: 749 ng/mL
- t1/2 [27]: 30.6 h
- tmax (400 mg BID fed, Cohort 4, Day 14 AM): 3.0 h
- tmax Day 7 evening dose (400 mg KAR5585 BID, fed): 6 h
- study day by which steady-state plasma levels were achieved (BID oral KAR5585 for 14 days): ≤ 7 days
